Assay results taken from ChEMBL document CHEMBL1201862, “PubChem BioAssay data set” (2004).
Calls of active or inactive are those of the source.

Columns and labels:
[1] = viability inhibitors of stage V gametocytes – luminescence, dose response (AID 1117278); assay type: functional, cell-based;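 further: gametocytes exposed to compound for 24 hours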
[2] = viability loss in human Jurkat cells – cell-based, luminescence, cytotoxicity control for P. falciparum gametocyte viability project, dose response (AID 1117277); assay type: functional;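 further: potency reflects loss of cellular ATP meaning fewer viable cells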
Vero = experiment: mammalian cell viability reduction – secondary assay, cytotoxicity control for West Nile virus antiviral project, dose response (AID 1650); assay type: functional; settings: Chlorocebus sabaeus
[3] = luciferase reporter signal suppression in cells – H4 neuroglioma cells, luminescence, dose response (AID 1990); assay type: functional, cell-based
[4] = Luminescence Cell-Based Dose Response HTS to Identify Inhibitors of 5'UTR Stem-Loop Driven Prion Protein mRNA Translation in H4 Neuroglioblastoma Cells. [Related pubchem assays: 1827 (Project Summary), 1813 (Primary HTS)]; assay type: functional
[5] = alpha-synuclein stem-loop luciferase translation blockers – H4 neuroglioma cells, luminescence, confirmation (AID 1988); assay type: functional, cell-based
Protein skinhead-1 = biological target: T1, Protein skinhead-1 (Caenorhabditis elegans, UniProt P34707); assay type: functional
T1 sequence (P34707 whole entry): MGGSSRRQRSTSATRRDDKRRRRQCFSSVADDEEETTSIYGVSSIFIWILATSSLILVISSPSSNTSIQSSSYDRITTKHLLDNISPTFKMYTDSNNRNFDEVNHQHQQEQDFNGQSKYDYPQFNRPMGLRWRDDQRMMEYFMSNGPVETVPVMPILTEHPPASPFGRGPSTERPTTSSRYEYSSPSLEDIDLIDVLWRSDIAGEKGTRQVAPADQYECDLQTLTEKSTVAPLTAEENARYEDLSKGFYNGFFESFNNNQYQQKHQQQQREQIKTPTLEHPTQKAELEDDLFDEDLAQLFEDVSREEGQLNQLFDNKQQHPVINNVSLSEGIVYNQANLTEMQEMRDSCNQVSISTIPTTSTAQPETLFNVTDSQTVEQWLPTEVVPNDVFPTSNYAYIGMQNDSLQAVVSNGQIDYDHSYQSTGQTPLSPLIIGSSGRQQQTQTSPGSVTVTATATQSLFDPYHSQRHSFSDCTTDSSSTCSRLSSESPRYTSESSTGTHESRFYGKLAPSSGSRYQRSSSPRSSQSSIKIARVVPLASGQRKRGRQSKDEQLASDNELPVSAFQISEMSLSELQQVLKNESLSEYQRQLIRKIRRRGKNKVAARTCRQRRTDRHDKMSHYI

[6] = toxicity toward HepG2 liver cells – cell-based, plate reader, cherry-pick, antagonist series, cytotoxicity control, dose response (AID 743416); assay type: functional
[7] = blockers of bursicon-stimulated LGR2 cAMP reporter – cell-based, HEK293, CRE-luciferase reporter, cherry pick, set 2, dose response (AID 743343); assay type: functional;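 further: transfected cells were stimulated with diluted bursicon conditioned medium after compound addition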
[8] = blockade of melanocortin 4 receptor signaling – cell-based, plate reader, cherry pick, counter-screen for LGR2 antagonist project, dose response (AID 743444); assay type: functional;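 further: transfected HEK 293 cells stimulated with alpha-MSH peptide; potency of inhibitors of the alpha-MSH evoked signal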
[9] = viability loss in HEK293 cells – cell-based, plate reader, cherry-picked samples, cytotoxicity control, dose response (AID 743446); assay type: functional
[10] = biological target: T2, 1-phosphatidylinositol 4,5-bisphosphate phosphodiesterase gamma-1 (Homo sapiens, UniProt P19174); experiment: Counterscreen for inhibitors of phospholipase C isozymes (PLC-B3): Fluorescence-based biochemical high throughput dose response assay to identify inhibitors of phospholipase C isozymes (PLC-gamma1).
T2 sequence (P19174 whole entry): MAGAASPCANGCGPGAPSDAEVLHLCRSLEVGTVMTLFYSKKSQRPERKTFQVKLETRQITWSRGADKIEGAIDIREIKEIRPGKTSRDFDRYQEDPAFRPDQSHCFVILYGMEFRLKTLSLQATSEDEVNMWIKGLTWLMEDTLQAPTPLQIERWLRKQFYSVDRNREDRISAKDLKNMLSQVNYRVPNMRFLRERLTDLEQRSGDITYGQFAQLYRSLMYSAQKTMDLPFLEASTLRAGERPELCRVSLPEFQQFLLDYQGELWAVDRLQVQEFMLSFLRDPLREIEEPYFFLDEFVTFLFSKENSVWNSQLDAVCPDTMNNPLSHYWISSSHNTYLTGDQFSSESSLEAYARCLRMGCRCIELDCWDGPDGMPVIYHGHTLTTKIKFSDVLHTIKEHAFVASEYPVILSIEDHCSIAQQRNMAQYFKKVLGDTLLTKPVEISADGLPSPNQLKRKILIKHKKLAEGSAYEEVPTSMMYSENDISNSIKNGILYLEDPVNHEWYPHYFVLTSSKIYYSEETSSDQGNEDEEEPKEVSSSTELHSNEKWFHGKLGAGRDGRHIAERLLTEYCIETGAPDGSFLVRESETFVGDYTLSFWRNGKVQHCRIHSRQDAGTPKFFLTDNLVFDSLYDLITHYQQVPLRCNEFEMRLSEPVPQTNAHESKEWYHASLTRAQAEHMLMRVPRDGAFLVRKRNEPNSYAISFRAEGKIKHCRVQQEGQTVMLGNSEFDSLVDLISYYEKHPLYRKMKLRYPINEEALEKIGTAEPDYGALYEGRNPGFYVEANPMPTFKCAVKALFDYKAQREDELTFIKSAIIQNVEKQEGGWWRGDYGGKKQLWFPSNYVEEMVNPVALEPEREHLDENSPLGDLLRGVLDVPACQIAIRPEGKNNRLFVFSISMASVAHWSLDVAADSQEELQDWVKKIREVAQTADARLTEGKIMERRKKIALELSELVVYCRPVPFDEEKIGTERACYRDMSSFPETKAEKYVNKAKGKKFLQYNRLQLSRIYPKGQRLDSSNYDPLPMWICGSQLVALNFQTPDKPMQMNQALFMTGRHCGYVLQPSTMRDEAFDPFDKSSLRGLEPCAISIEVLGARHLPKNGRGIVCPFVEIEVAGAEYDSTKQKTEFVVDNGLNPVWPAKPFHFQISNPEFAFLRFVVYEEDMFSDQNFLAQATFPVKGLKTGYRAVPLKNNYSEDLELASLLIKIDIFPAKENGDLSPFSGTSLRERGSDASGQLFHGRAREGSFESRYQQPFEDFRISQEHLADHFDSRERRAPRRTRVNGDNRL

[11] = biological target: T3, 1-phosphatidylinositol 4,5-bisphosphate phosphodiesterase beta-3 (Homo sapiens, UniProt Q01970); experiment: Fluorescence-based biochemical high throughput dose response assay to identify inhibitors of phospholipase C isozymes (PLC-B3).
T3 sequence (Q01970 whole entry): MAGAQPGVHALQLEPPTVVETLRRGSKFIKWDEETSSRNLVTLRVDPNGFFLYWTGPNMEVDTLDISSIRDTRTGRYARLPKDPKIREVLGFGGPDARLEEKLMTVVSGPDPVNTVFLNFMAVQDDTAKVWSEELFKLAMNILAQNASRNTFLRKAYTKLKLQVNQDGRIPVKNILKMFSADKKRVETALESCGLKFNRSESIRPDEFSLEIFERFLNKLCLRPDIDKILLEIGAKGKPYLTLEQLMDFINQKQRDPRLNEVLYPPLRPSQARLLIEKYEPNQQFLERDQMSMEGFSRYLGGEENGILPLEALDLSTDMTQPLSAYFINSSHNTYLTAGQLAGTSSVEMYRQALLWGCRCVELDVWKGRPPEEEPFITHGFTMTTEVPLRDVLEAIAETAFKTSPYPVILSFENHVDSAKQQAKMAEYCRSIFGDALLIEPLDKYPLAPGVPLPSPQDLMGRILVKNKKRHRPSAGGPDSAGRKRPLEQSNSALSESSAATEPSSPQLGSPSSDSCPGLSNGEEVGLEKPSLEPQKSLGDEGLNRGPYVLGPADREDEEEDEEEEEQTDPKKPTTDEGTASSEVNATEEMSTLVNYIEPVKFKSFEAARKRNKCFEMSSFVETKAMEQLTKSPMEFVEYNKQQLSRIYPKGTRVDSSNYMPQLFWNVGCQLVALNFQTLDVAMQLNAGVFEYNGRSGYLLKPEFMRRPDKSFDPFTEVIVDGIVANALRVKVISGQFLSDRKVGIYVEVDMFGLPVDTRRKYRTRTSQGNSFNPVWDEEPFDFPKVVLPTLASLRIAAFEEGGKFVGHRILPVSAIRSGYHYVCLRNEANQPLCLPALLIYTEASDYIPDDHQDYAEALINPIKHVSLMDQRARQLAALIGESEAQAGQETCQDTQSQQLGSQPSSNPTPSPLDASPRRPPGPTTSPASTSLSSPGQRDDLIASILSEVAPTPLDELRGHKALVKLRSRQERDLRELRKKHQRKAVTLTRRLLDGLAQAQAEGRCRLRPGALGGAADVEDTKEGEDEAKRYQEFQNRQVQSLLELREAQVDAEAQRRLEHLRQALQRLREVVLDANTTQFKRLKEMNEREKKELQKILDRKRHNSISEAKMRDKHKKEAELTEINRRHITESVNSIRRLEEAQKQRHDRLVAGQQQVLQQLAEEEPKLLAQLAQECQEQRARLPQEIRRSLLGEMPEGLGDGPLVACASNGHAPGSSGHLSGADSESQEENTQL

[12] = biological target: T4, COUP transcription factor 2 (Homo sapiens, UniProt P24468); experiment: Luminescence-based cell-based high throughput dose response assay to identify inhibitors of COUP-TFII (NR2F2).; assay type: functional;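 further: HEK293 cells transiently cotransfected with COUP-TFII expression vector and reporter; luciferase reporter luminescence driven by COUP-TFII from the pX2-168 reporter plasmid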
T4 sequence (P24468 whole entry): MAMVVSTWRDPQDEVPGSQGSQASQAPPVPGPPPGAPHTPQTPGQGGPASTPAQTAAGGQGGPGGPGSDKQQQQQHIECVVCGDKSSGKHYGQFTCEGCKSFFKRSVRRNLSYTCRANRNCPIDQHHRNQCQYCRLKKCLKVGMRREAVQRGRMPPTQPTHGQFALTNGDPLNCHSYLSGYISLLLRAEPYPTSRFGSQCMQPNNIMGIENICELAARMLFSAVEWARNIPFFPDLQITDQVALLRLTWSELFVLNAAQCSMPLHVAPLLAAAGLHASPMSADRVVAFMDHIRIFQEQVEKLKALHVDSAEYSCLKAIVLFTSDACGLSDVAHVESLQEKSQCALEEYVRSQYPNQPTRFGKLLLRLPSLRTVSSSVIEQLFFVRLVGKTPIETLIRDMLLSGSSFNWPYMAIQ

Cc1ccc(C(=O)N2CCN(S(=O)(=O)c3ccccc3)CC2)cc1
IC50 [1]: > 109 µM (inactive)
IC50 [2]: > 83.3 µM (inactive)

Cc1cccc(-c2cc3nc(C)cc(NCCCN(C)C)n3n2)c1
CC50 (Vero): 64.2 µM (active)

CCCOc1ccc2cc(-c3ccccn3)c(=O)oc2c1
EC50 [3]: 2.91 µM (active)
EC50 [4]: 9.71 µM (active)
EC50 [5]: 2.83 µM (active)
IC50 (Protein skinhead-1): > 100 µM (inactive)
AC50 [6]: > 52 µM (inactive)
AC50 [7]: 1.48 µM (active)
AC50 [8]: 2 µM (active)
AC50 [9]: 33.6 µM (active)

Cc1ccc(S(=O)(=O)Cc2nc(O)c3ccccc3n2)cc1
IC50 [10]: > 123 µM (inactive)
IC50 [11]: > 123 µM (inactive)

O=C(COC(=O)CSc1ccc2ccccc2c1)NCc1ccc2c(c1)OCO2
IC50 [1]: > 109 µM (inactive)
IC50 [2]: > 83.3 µM (inactive)

Cn1c2ccccc2c(=O)c2cc(C#CC3(O)CCCCC3)ccc21
IC50 [12]: 12 µM (inactive)

Cc1cc(NC(=O)c2ccccc2)ncc1NC(=O)c1cccs1
IC50 [10]: > 122 µM (inactive)
IC50 [11]: > 122 µM (inactive)
